Experimental data as given in PubChem BioAssay AID1963846 (Molecular Pharmacology Branch, DTP, NCI, 2024).

Tested on: 454973-116-R2-J3-PDC complex spheroid viability
Assay: Anticancer human tumor 454973-116-R2-J3-PDC patient-derived pancreatic carcinoma cell line growth inhibition [POLQ]
Conditions: for IC50: curve of first compound; for viability, T/C: stronger effect = lower value
Outline: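 Complex spheroid viability model combining PDC tumour cells with endothelial (HUVEC) and MSC stromal cells. Novobiocin, ART-558 or RP6685 were tested singly and in combination with standard and investigational anticancer drugs. Each was titrated in half-log steps from near clinical Cmax, or from 10 microM where Cmax was unknown.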

[1] = second compound 0.0316 µM, first compound 0.0316 µM
[2] = second compound 0.0316 µM, first compound 0.1 µM
[3] = second compound 0.0316 µM, first compound 0.316 µM
[4] = second compound 0.0316 µM, first compound 1 µM
[5] = second compound 0.1 µM, first compound 0.0316 µM
[6] = second compound 0.1 µM, first compound 0.1 µM
[7] = second compound 0.1 µM, first compound 0.316 µM
[8] = second compound 0.1 µM, first compound 1 µM
[9] = second compound 0.316 µM, first compound 0.0316 µM
[10] = second compound 0.316 µM, first compound 0.1 µM
[11] = second compound 0.316 µM, first compound 0.316 µM
[12] = second compound 0.316 µM, first compound 1 µM
[13] = second compound 1 µM, first compound 0.0316 µM
[14] = second compound 1 µM, first compound 0.1 µM
[15] = second compound 1 µM, first compound 0.316 µM
[16] = second compound 1 µM, first compound 1 µM
[17] = second compound 3.16 µM, first compound 0.0316 µM
[18] = second compound 3.16 µM, first compound 0.1 µM
[19] = second compound 3.16 µM, first compound 0.316 µM
[20] = second compound 3.16 µM, first compound 1 µM
[21] = second compound 10 µM, first compound 0.0316 µM
[22] = second compound 10 µM, first compound 0.1 µM
[23] = second compound 10 µM, first compound 0.316 µM
[24] = second compound 10 µM, first compound 1 µM
[25] = second compound 0.0316 µM, first compound 3.16 µM
[26] = second compound 0.0316 µM, first compound 10 µM
[27] = second compound 0.1 µM, first compound 3.16 µM
[28] = second compound 0.1 µM, first compound 10 µM
[29] = second compound 0.316 µM, first compound 3.16 µM
[30] = second compound 0.316 µM, first compound 10 µM
[31] = second compound 1 µM, first compound 3.16 µM
[32] = second compound 1 µM, first compound 10 µM
[33] = second compound 3.16 µM, first compound 3.16 µM
[34] = second compound 3.16 µM, first compound 10 µM
[35] = second compound 10 µM, first compound 3.16 µM
[36] = second compound 10 µM, first compound 10 µM
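Also: spheroids exposed to drugs for seven days before measurement.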
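For viability, T/C in this document: percent viability relative to DMSO vehicle control wells taken as 100%.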

Question: What does the source list for `CCc1c2c(nc3ccc(O)cc13)-c1cc3c(c(=O)n1C2)COC(=O)[C@]3(O)CC` + COC1C(OC(N)=O)C(O)C(Oc2ccc3c(O)c(NC(=O)c4ccc(O)c(CC=C(C)C)c4)c(=O)oc3c2C)OC1(C)C?
Answer: IC50 (second compound 0.0316 µM): < 3.16 nM; IC50 (second compound 0.1 µM): < 3.16 nM; IC50 (second compound 0.316 µM): < 3.16 nM; IC50 (second compound 1 µM): < 3.16 nM; IC50 (second compound 3.16 µM): < 3.16 nM; IC50 (second compound 10 µM): < 3.16 nM; viability, T/C (second compound 0.0316 µM, first compound 0.00316 µM): 37.3%; viability, T/C (second compound 0.0316 µM, first compound 0.01 µM): 16.3%; viability, T/C [1]: 8.76%; viability, T/C [2]: 4.34%; viability, T/C [3]: 4.57%; viability, T/C [4]: 0.92%; viability, T/C (second compound 0.1 µM, first compound 0.00316 µM): 38.9%; viability, T/C (second compound 0.1 µM, first compound 0.01 µM): 13.7%; viability, T/C [5]: 10.5%; viability, T/C [6]: 6.92%; viability, T/C [7]: 2.75%; viability, T/C [8]: 1.04%; viability, T/C (second compound 0.316 µM, first compound 0.00316 µM): 37.1%; viability, T/C (second compound 0.316 µM, first compound 0.01 µM): 15.8%; viability, T/C [9]: 14.7%; viability, T/C [10]: 4.68%; viability, T/C [11]: 2.98%; viability, T/C [12]: 1.19%; viability, T/C (second compound 1 µM, first compound 0.00316 µM): 34.1%; viability, T/C (second compound 1 µM, first compound 0.01 µM): 14.2%; viability, T/C [13]: 12.5%; viability, T/C [14]: 6.32%; viability, T/C [15]: 3.96%; viability, T/C [16]: 3.08%; viability, T/C (second compound 3.16 µM, first compound 0.00316 µM): 31.2%; viability, T/C (second compound 3.16 µM, first compound 0.01 µM): 13.9%; viability, T/C [17]: 9.37%; viability, T/C [18]: 4.13%; viability, T/C [19]: 2.03%; viability, T/C [20]: 2.74%; viability, T/C (second compound 10 µM, first compound 0.00316 µM): 29.1%; viability, T/C (second compound 10 µM, first compound 0.01 µM): 15.1%; viability, T/C [21]: 11.4%; viability, T/C [22]: 6.62%; viability, T/C [23]: 3.37%; viability, T/C [24]: 1.53%

Question: For `O=C(Nc1ccc(O)c(NS(=O)(=O)c2ccc(F)cc2)c1)c1ccc(-c2ccccc2)cc1` + Cc1cccc(N(C)C(=O)C2C(O)CCN2c2nc(C)cc(C(F)(F)F)c2C#N)c1, which IC50 (second compound 0.0316 µM) is on record?
Answer: > 10000 nM

Question: What about the IC50 (second compound 0.1 µM) of the same molecule?
Answer: > 10000 nM

Question: And the IC50 (second compound 0.316 µM)?
Answer: > 10000 nM

Question: What about the IC50 (second compound 1 µM) of the same molecule?
Answer: > 10000 nM

Question: And the IC50 (second compound 3.16 µM)?
Answer: > 10000 nM

Question: What about the IC50 (second compound 10 µM) of the same molecule?
Answer: > 10000 nM

Question: What about the viability, T/C [1] of the same molecule?
Answer: 98.1%

Question: And the viability, T/C [2]?
Answer: 108%

Question: What about the viability, T/C [3] of the same molecule?
Answer: 87.1%

Question: What about the viability, T/C [4] of the same molecule?
Answer: 100%

Question: What about the viability, T/C [25] of the same molecule?
Answer: 114%

Question: What about the viability, T/C [26] of the same molecule?
Answer: 82.2%

Question: What about the viability, T/C [5] of the same molecule?
Answer: 96.8%

Question: What about the viability, T/C [6] of the same molecule?
Answer: 97.2%

Question: And the viability, T/C [7]?
Answer: 101%

Question: And the viability, T/C [8]?
Answer: 111%

Question: And the viability, T/C [27]?
Answer: 102%

Question: What about the viability, T/C [28] of the same molecule?
Answer: 85.1%

Question: And the viability, T/C [9]?
Answer: 105%

Question: What about the viability, T/C [10] of the same molecule?
Answer: 92.7%

Question: What about the viability, T/C [11] of the same molecule?
Answer: 102%

Question: And the viability, T/C [12]?
Answer: 106%

Question: What about the viability, T/C [29] of the same molecule?
Answer: 110%

Question: What about the viability, T/C [30] of the same molecule?
Answer: 84.9%

Question: What about the viability, T/C [13] of the same molecule?
Answer: 98.9%

Question: And the viability, T/C [14]?
Answer: 98.1%

Question: What about the viability, T/C [15] of the same molecule?
Answer: 100%

Question: What about the viability, T/C [16] of the same molecule?
Answer: 103%

Question: And the viability, T/C [31]?
Answer: 108%

Question: What about the viability, T/C [32] of the same molecule?
Answer: 85%

Question: What about the viability, T/C [17] of the same molecule?
Answer: 107%

Question: And the viability, T/C [18]?
Answer: 98.2%

Question: And the viability, T/C [19]?
Answer: 98.4%

Question: What about the viability, T/C [20] of the same molecule?
Answer: 103%

Question: And the viability, T/C [33]?
Answer: 112%

Question: And the viability, T/C [34]?
Answer: 81.4%

Question: What about the viability, T/C [21] of the same molecule?
Answer: 102%

Question: And the viability, T/C [22]?
Answer: 105%

Question: What about the viability, T/C [23] of the same molecule?
Answer: 104%

Question: What about the viability, T/C [24] of the same molecule?
Answer: 105%

Question: What about the viability, T/C [35] of the same molecule?
Answer: 95.8%

Question: What about the viability, T/C [36] of the same molecule?
Answer: 74.3%

Question: Which results are given for `COc1cccc2c1C(=O)c1c(O)c3c(c(O)c1C2=O)CC(O)(C(=O)CO)CC3OC1CC(N)C(O)C(C)O1` (stereo unspecified) + COC1C(OC(N)=O)C(O)C(Oc2ccc3c(O)c(NC(=O)c4ccc(O)c(CC=C(C)C)c4)c(=O)oc3c2C)OC1(C)C?
Answer: IC50 (second compound 0.0316 µM): 56.2 nM; IC50 (second compound 0.1 µM): 57.3 nM; IC50 (second compound 0.316 µM): 64.8 nM; IC50 (second compound 1 µM): 63.6 nM; IC50 (second compound 3.16 µM): 66.4 nM; IC50 (second compound 10 µM): 61.8 nM; viability, T/C [1]: 71%; viability, T/C [2]: 23.6%; viability, T/C [3]: 21.3%; viability, T/C [4]: 8.86%; viability, T/C [25]: 0.64%; viability, T/C [26]: 0.19%; viability, T/C [5]: 69.5%; viability, T/C [6]: 27.6%; viability, T/C [7]: 22.3%; viability, T/C [8]: 8.87%; viability, T/C [27]: 0.52%; viability, T/C [28]: 0.98%; viability, T/C [9]: 74.3%; viability, T/C [10]: 29.4%; viability, T/C [11]: 25.5%; viability, T/C [12]: 8.79%; viability, T/C [29]: 0.27%; viability, T/C [30]: 0.29%; viability, T/C [13]: 78.3%; viability, T/C [14]: 26%; viability, T/C [15]: 23.6%; viability, T/C [16]: 11.8%; viability, T/C [31]: 3.28%; viability, T/C [32]: 2.08%; viability, T/C [17]: 76.4%; viability, T/C [18]: 30.7%; viability, T/C [19]: 22.9%; viability, T/C [20]: 9.68%; viability, T/C [33]: 0.46%; viability, T/C [34]: 0.39%; viability, T/C [21]: 76%; viability, T/C [22]: 24.7%; viability, T/C [23]: 24.8%; viability, T/C [24]: 10%; viability, T/C [35]: 1.62%; viability, T/C [36]: 0.41%
